Experimental data from patent US20190125672A1, “Fabrication of Magnetic Vesicles for Biomedical Imaging and Delivery” (University of Maryland, College Park, priority 2017, published 2019).
Converted amounts (≈) assume the structure as drawn.

Columns and labels:
U87MG cells = assay: MTT cytotoxicity assay; details: Dox concentration
Description: Cells were plated at a density of 1×10^4 in 96-well plates and cultured at 37° C. for 24 hours. Then the culture medium was replaced and the cells were incubated with different concentrations of Dox, Mu magento-vesicles, Dox-Mu magento-vesicles, and RGD-Dox-Mu magento-vesicles for 1 hour. The concentrations of Fe in MuMVs, Dox-MuMVs and RGD-Dox-MuMVs as well as the concentrations of Dox in free drug, Dox-MuMVs and RGD-Dox-MuMVs groups were kept constant for the purpose of comparison. Then the culture medium was replaced with fresh medium and the cells were incubated for another 12 hours, followed by the addition of 20 μL of the MTT solution (5 mg/mL). After incubation for 4 hours, culture supernatants were carefully removed and 100 μL of DMSO was added into each well to dissolve the purple precipitate. The concentration of the reduced MTT in each well was determined spectrophotometrically by subtraction of the absorbance reading at 650 nm from that measured at 570 nm using a microplate reader (SpectraMax M5). Cell viabilities were presented as the percentage of the absorbance of Dox, MuMVs, Dox-MuMVs and RGD-Dox-MuMVs treated cells to the absorbance of non-treated cells and plotted as Fe and Dox concentrations.

U87MG tumors = assay: In vivo tumor suppression; design: species or system mice; details: without magnet; Dox-equivalent dose 5 mg/kg i.v.; over 30 days
Description: The therapeutic efficacy was evaluated by monitoring the tumor volume change every two days over 30 days (FIG. 61A).
The U87MG tumor-bearing mice were randomly divided into six groups with 5 mice in each group. The first group of mice received PBS, as control group; the second group was injected with Dox solution, as “Dox” group; the third group was injected with Dox-MuMVs without magnetic attraction, as “magnet- RGD-” group; the fourth group was injected with RGD-Dox-MuMVs without magnetic enrichment, as “magnet-RGD+” group; the fifth group was injected with Dox-MuMVs under magnetic attraction, as “magnet+RGD-” group; the sixth group was injected with RGD-Dox-MuMVs under magnetic attraction, as “[…]” group. All the experimental groups (2-6 groups) are dispersed in 150 μl PBS before intravenous administration with a Dox-equivalent dose of 5 mg/kg. For the groups under magnetic attraction, the magnet was applied for 1 h along with injection of therapeutic agents. […] after the corresponding treatments, the volume of tumors was measured every other day and calculated by the following equation: V=L×W^2/2. The body weight of the mice was also evaluated during this period to reveal the systemic toxicity of the delivery platform.

SMILES: COc1cccc2c1C(=O)c1c(O)c3c(c(O)c1C2=O)C[C@@](O)(C(=O)CO)C[C@@H]3O[C@H]1C[C@H](N)[C@H](O)[C@H](C)O1 [Dox, doxorubicin]
- IC50 (U87MG cells): 0.47 µg/mL (≈ 0.865 µM)
- tumor growth (U87MG tumors): Minor delay in tumor growth
